Assays:
Experiment in all cases: Off-chip Mobility Shift Assay, kinase inhibition
Assay type in all cases: biochemical
[1] = target: T1, KIT(V654A) (Homo sapiens, UniProt P10721, V654A); conditions: at 10 nM; recombinant KIT(V654A)
T1 construct: purchased Carna Biosciences, Inc

[2] = target: T2, RET(S891A) (Homo sapiens, UniProt P07949, S891A); conditions: at 10 nM; recombinant RET(S891A)
T2 construct: purchased Carna Biosciences, Inc

[3] = target: T3, AurA (Homo sapiens, UniProt O14965); conditions: at 10 nM; recombinant AurA
T3 construct: purchased Carna Biosciences, Inc
T3 sequence (O14965 whole entry): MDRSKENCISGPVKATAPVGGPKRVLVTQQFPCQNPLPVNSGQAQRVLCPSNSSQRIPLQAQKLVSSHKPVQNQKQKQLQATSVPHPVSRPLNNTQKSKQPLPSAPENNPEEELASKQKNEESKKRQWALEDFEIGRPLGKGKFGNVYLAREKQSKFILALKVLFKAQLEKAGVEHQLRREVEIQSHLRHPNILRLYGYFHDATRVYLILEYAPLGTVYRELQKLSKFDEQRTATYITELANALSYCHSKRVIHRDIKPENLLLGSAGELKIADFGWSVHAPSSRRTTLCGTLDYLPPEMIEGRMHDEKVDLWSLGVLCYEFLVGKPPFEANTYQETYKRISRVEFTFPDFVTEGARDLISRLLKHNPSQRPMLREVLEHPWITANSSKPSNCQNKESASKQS

[4] = target: T4, RET(M918T) (Homo sapiens, UniProt P07949, M918T); conditions: at 10 nM; recombinant RET(M918T)
T4 construct: purchased Carna Biosciences, Inc
T4 sequence (P07949 29-1114 M918T): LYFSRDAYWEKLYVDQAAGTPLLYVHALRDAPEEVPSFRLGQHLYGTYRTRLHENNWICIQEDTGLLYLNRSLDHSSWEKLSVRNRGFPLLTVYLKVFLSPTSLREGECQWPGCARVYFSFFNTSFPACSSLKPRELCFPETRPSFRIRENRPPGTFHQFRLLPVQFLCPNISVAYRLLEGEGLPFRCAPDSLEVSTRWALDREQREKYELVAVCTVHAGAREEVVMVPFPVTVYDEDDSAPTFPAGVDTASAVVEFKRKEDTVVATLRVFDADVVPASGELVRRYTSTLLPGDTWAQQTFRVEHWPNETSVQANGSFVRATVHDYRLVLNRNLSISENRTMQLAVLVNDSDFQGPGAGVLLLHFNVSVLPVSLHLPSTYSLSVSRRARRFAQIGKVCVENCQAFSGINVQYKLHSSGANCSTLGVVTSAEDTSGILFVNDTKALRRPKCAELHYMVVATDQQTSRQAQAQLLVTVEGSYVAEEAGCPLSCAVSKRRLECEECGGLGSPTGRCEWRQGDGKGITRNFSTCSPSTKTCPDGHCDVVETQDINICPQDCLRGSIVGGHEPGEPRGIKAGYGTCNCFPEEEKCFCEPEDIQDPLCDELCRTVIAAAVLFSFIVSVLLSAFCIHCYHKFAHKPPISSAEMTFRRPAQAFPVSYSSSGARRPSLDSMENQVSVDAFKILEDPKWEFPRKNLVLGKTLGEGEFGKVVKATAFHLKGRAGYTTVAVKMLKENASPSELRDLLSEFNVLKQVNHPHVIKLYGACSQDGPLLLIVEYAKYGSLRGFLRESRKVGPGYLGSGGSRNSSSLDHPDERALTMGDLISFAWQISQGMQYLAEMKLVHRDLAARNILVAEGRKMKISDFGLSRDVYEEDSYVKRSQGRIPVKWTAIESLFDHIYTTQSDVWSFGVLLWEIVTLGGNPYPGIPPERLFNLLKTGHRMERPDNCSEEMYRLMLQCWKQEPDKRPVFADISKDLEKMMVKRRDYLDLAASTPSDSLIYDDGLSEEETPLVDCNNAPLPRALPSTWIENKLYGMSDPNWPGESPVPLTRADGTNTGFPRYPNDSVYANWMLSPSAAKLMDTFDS

[5] = target: T5, MST1 (Homo sapiens, UniProt Q13043); conditions: at 10 nM; recombinant MST1
T5 construct: purchased Carna Biosciences, Inc
T5 sequence (Q13043 whole entry): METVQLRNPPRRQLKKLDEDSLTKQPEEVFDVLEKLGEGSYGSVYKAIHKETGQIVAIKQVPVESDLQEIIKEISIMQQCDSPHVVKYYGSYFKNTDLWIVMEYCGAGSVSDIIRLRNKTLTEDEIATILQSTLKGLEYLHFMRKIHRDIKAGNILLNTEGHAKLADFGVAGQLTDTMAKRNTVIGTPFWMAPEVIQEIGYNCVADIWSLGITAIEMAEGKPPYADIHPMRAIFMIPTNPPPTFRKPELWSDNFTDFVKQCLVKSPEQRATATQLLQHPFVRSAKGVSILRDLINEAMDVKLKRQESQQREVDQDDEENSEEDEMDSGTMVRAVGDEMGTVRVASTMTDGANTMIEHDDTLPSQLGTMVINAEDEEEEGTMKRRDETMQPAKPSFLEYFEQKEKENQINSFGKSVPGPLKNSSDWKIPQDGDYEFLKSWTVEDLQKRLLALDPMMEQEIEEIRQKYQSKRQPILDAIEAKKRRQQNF

[6] = target: T6, PKD1 (Homo sapiens, UniProt Q15139); conditions: at 10 nM; recombinant PKD1
T6 construct: purchased Carna Biosciences, Inc
T6 sequence (Q15139 whole entry): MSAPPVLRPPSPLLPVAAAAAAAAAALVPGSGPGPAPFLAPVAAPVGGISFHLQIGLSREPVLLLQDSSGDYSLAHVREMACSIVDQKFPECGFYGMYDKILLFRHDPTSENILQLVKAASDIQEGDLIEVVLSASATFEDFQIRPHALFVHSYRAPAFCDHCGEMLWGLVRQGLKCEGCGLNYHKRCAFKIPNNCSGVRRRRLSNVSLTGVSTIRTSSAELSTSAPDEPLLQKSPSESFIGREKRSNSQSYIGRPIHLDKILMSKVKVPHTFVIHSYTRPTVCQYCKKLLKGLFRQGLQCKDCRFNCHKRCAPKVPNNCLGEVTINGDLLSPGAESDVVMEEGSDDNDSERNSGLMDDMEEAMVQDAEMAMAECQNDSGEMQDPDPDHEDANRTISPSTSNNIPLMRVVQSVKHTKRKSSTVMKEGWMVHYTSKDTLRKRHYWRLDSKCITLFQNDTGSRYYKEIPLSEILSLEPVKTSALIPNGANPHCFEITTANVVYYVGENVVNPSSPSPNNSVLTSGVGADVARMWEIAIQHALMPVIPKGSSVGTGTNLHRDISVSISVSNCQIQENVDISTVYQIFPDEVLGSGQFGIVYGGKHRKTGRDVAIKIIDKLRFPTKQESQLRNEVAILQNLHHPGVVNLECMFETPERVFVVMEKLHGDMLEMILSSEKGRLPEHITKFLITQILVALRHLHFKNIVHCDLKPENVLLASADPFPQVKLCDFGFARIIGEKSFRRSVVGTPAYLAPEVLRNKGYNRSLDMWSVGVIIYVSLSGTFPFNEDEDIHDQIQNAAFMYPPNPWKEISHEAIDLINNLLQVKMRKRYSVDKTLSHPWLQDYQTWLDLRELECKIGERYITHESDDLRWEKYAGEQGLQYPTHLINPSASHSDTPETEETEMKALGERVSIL

[7] = target: T7, ABL(T315I) (Homo sapiens, UniProt P00519, T315I); conditions: at 1 nM; recombinant ABL(T315I)
T7 construct: purchased Carna Biosciences, Inc

T1 sequence (P10721 26-976 V654A): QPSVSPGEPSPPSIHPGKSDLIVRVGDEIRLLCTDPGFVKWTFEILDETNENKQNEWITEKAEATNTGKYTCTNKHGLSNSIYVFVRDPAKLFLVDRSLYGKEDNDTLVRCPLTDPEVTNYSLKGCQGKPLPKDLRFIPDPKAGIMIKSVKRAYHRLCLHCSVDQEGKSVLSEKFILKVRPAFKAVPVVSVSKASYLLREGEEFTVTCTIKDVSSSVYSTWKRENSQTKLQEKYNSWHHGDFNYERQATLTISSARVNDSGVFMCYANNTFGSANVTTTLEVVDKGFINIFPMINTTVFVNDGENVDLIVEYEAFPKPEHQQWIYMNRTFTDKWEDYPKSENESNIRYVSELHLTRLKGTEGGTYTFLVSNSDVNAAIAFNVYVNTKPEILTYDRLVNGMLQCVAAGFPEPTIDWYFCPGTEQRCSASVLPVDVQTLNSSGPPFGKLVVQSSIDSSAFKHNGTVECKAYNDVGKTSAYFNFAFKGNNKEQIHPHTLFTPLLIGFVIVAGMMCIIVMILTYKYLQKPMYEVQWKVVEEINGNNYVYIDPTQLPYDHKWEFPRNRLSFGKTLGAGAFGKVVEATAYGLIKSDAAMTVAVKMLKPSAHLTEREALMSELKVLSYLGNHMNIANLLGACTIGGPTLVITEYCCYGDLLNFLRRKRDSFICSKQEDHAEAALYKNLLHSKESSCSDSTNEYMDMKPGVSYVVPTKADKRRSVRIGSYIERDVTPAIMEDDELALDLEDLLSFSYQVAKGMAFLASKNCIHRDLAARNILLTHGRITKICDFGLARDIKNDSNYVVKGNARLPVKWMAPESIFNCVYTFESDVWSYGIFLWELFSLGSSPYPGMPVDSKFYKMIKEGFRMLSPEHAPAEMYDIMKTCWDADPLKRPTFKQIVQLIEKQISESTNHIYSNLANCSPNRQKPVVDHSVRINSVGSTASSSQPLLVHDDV
T2 sequence (P07949 29-1114 S891A): as the sequence (P07949 29-1114 M918T) above, with S863A, T890M counted along it

[2H]c1cc(C)c(NC(=O)c2cnc(Nc3cc(N4CCCCC4)nc(C)n3)s2)c(Cl)c1 [Compound I, N-(2-chloro-4-deuterio-6-methyl-phenyl)-2-[[2-methyl-6-(1-piperidyl)pyrimidin-4-yl]amino]thiazole-5-carboxamide]
< 50%: inhibition at 0.01 µM [1] | inhibition at 0.01 µM [2] | inhibition at 0.01 µM [3] | inhibition at 0.01 µM [4] | inhibition at 0.01 µM [5] | inhibition at 0.01 µM [6]

[2H]c1cc(C)c(NC(=O)c2cnc(Nc3cc(N4CCC(O)CC4)nc(C)n3)s2)c(Cl)c1 [Compound II, N-(2-chloro-4-deuterio-6-methyl-phenyl)-2-[[6-(4-hydroxy-1-piperidyl)-2-methyl-pyrimidin-4-yl]amino]thiazole-5-carboxamide]
< 50%: inhibition at 0.001 µM [7]
